Laboratory results taken from US8614203B2, “Methods for the treatment of a central nervous system injury via a tapered administration protocol” (Emory University, priority 2005, dated 2013).

Legend:
[1] = test system: ischemic injury; conditions: following ischemic injury in rats (Jiang et al. 1996); cited from earlier work
[2] = test system: traumatic brain injury; test: Example 2: dose response, sticker removal task (sensory neglect) after TBI, cyclodextrin vehicle; type: in vivo
Method: […] Pairs of circular adhesive papers (2 cm dia) were attached to the distal-radial areas of each forepaw and the rats' latencies to remove the stimuli were recorded. Each rat was given four trials (2-min ITI) per testing period with a maximum trial length of 2 minutes.
(§1) Surgery to induce a traumatic brain injury was performed as outlined in Example 1. Behavior testing using the Morris Water Maize was performed as outlined in Example 1 and the methods for the tactical adhesive removal were performed.

[3] = test system: HSP70; test: Example 3: Western blot of brain tissue, HSP70; type: in vivo, Sprague-Dawley rats; conditions: TWI vs AWI vs VI, 3 weeks post-injury
Method: (§2) Male Sprague-Dawley rats received either medial frontal cortex injury or sham surgery. Injections were given 1 and 6 hours post-injury, and every 24 hours for 7 days. Treatment groups (n=8) encompassed injured (I) and sham (S) acute withdrawal (AW), tapered withdrawal (TW) and vehicle (V) treatments. TW injections were progressively halved over the final two treatments. Behavioral testing was conducted post-surgery, mid- and post-withdrawal. Activity boxes were used to investigate vertical movements and exploration: Sensory neglect and anxiety behaviors were also analyzed. Brain harvesting was performed at 8 days or 3 weeks post-injury. Perfused tissue sections were analyzed for lesion volume and immunohistochemical response. Fresh brain tissue was flash frozen in chilled 2-methyl butane, and then homogenized for Western blot analysis.

[4] = test system: medial frontal cortex injury or sham surgery; test: Example 3: behavioral testing (anxiety, locomotor, sensory neglect), acute vs tapered withdrawal; type: in vivo, Sprague-Dawley rats
Method: as §2

[5] = test system: GFAP; test: Example 3: GFAP staining (reactive astrocytes); type: in vivo, Sprague-Dawley rats
Method: as §2

[6] = test system: bilateral contusions of the medial prefrontal cortex; test: Example 1: cell counts of Nissl-stained neurons (STR, GP, DMN, VMN) after TBI; type: in vivo, Sprague-Dawley rats; conditions: 4 mg/kg in peanut oil
Method: (§3) Male Sprague-Dawley rats (300 g) were housed individually in wire cages and kept on a reverse light-dark cycle (0800-2000 h). […] All procedures involving animals conformed to guidelines set forth in the Guide for the Care and Use of Laboratory Animals (U.S. Department of Health and Human Services, Pub no. 85-23, 1985) and were approved by the Emory University Institutional Animal Care and Use Committee.
Bilateral contusions of the medial prefrontal cortex were created by a pneumatic impactor device as previously described. Briefly, rats were given anesthetized with ketamine/xylazine (90 mg/kg; 10 mg/kg) and placed in a stereotaxic apparatus. A craniectomy (diameter 6 mm) was made over the midline of the prefrontal cortex with its center 1.5 mm AP to bregma. After removal of the bone, the tip of the impactor (diameter 5 mm) was moved to +3.0 mm AP; 1.0 mm ML (from bregma), and checked for adequate clearance. Trauma was produced by pneumatically activating the piston to impact −2.0 mm DV (from dura) at a velocity of 3 m/s with a brain contact time of 0.5 seconds. […]
Cell counts were done on an Olympus BH-2 microscope equipped with an eyepiece micrometer grid (sample area=40 um^2 at ×400 magnification). […] Only cells with neuronal nuclei and intact membranes were counted as neurons.
Experienced individuals who were blind to treatment conditions of the study conducted all histological and behavioral analyses. All data were tested for normality and homoschedasticity before being analyzed by parametric analysis of variance (ANOVA). MWM results were analyzed using separate mixed-factorial (4 groups×5 days) analysis of variance (ANOVA) on each of the two 5-day testing periods (acquisition and retention respectively). Results of the BSN task were analyzed using the mixed-factorial ANOVA (4 groups×2 post-injury trials). […] Pearson r coefficients were calculated to determine whether significant correlations could be detected between histological (e.g., lesion size and cellular density) and behavioral parameters (e.g., acquisition and retention of the MWM task and measures of sensory neglect).

[7] = test system: contusion injury; conditions: following a contusion injury (Roof et al. 1994); cited from earlier work
[8] = test system: bilateral contusions of the medial prefrontal cortex; test: Example 1: bilateral sensory neglect (BSN) task after TBI; type: in vivo, Sprague-Dawley rats; conditions: 4 mg/kg, 3 days (LP3); 6 and 20 days post injury
Method: as §3
Bilateral contusions of the medial prefrontal cortex were created by a pneumatic impactor device as previously described. Briefly, rats were given anesthetized with ketamine/xylazine (90 mg/kg; 10 mg/kg) and placed in a stereotaxic apparatus. […]
Experienced individuals who were blind to treatment conditions of the study conducted all histological and behavioral analyses. All data were tested for normality and homoschedasticity before being analyzed by parametric analysis of variance (ANOVA). MWM results were analyzed using separate mixed-factorial (4 groups×5 days) analysis of variance (ANOVA) on each of the two 5-day testing periods (acquisition and retention respectively). Results of the BSN task were analyzed using the mixed-factorial ANOVA (4 groups×2 post-injury trials). […]
Measures of attentional abilities, using a bilateral sensory neglect (BSN) task, were recorded one day prior to surgery (baseline) and on postsurgical days 6 and 20. […]

[9] = test system: traumatic brain injury; test: Example 2: dose response, Morris water maze after TBI, cyclodextrin vehicle; type: in vivo
Method: Beginning one week after surgery, spatial learning ability was assessed in the Morris water maze (MWM) task described previously. Each animal was tested for a total of 10 days in two 5-day trial blocks (acquisition and retention respectively). Animals were placed in the pool (nose facing the pool-wall) at one of four randomly determined starting positions (e.g.: N, S, E, W). Each rat was allowed to swim freely in the pool until it found the hidden platform or until 90 seconds had elapsed. […] Once on the platform, animals were allowed to rest for 10 seconds and then removed from the pool and placed near a heat lamp for warmth. Each rat was given two trials per day with a 20-second intertrial interval (ITI). The dependent measures for this task were latency to find the hidden platform and swim strategy (e.g., percent of time spent in the inner vs. outer annuli). Swim speed measures were recorded daily in order to delineate motor dysfunction from learning impairment.
as §1

[10] = test system: bilateral contusions of the medial prefrontal cortex; test: Example 1: Morris water maze (MWM) task after TBI; type: in vivo, Sprague-Dawley rats
Method: as §3
Bilateral contusions of the medial prefrontal cortex were created by a pneumatic impactor device as previously described. Briefly, rats were given anesthetized with ketamine/xylazine (90 mg/kg; 10 mg/kg) and placed in a stereotaxic apparatus. A craniectomy (diameter 6 mm) was made over the midline of the prefrontal cortex with its center 1.5 mm AP to bregma. After removal of the bone, the tip of the impactor (diameter 5 mm) was moved to +3.0 mm AP; 1.0 mm ML (from bregma), and checked for adequate clearance. Trauma was produced by pneumatically activating the piston to impact −2.0 mm DV (from dura) at a velocity of 3 m/s with a brain contact time of 0.5 seconds.
Control animals received injections of vehicle at similar time-points. Animals were coded with regard to surgery and treatment to prevent experimenter bias during behavioral testing and histological examination.
Experienced individuals who were blind to treatment conditions of the study conducted all histological and behavioral analyses. All data were tested for normality and homoschedasticity before being analyzed by parametric analysis of variance (ANOVA). MWM results were analyzed using separate mixed-factorial (4 groups×5 days) analysis of variance (ANOVA) on each of the two 5-day testing periods (acquisition and retention respectively). Results of the BSN task were analyzed using the mixed-factorial ANOVA (4 groups×2 post-injury trials). Histological comparisons on mean densitometry recordings, area measurements, and cell counts were made using a one-way ANOVA. All between-group comparisons were made using multiple Tukey post-hoc tests (p<0.05) when the overall ANOVA was significant ([…]) between groups. Pearson r coefficients were calculated to determine whether significant correlations could be detected between histological (e.g., lesion size and cellular density) and behavioral parameters (e.g., acquisition and retention of the MWM task and measures of sensory neglect).
Beginning one week after surgery, spatial learning ability was assessed in the Morris water maze (MWM) task described previously. […] Animals were placed in the pool (nose facing the pool-wall) at one of four randomly determined starting positions (e.g.: N, S, E, W). […] Swim speed measures were recorded daily in order to delineate motor dysfunction from learning impairment.

For `CC(=O)[C@H]1CC[C@H]2[C@@H]3CCC4=CC(=O)CC[C@]4(C)[C@H]3CC[C@]12C` [progesterone, pregn-4-ene-3,20-dione], the “cell damage and neurological deficit” value [1] is given as “reduce cell damage and neurological deficit”, the “sticker removal task (sensory neglect), initial” value ([2]; all doses (8, 16, 32 mg/kg), initially) is given as “initially produce behavioral recovery” and the “sticker removal task (sensory neglect), later course” value ([2]; high dose (32 mg/kg)) is given as “degraded to lesion control levels”. For the same compound, the “sticker removal task (sensory neglect), later course” value ([2]; moderate dose (16 mg/kg), day 21 post-injury) was “improved to sham levels by day 21 post-injury”, the HSP70 expression [3] was “increased for TWI over AWI over VI at 3 weeks post-injury” and the “anxiety, locomotor and sensory deficits” value ([4]; injured (AWI) vs tapered withdrawal, injured (TWI)) was “increase anxiety, locomotor and sensory deficits compared to tapered progesterone withdrawal”. The “behavioral impairments one week after peak of withdrawal” value ([4]; injured (AWI), one week later) was “increased behavioral impairments are still evident in AWI animals”, the motor impairments ([4]; shams (AWS) vs other shams) was “increased motor impairments compared to all other shams” and the anxiety ([4]; shams (AWS) vs tapered progesterone rats) was “increased anxiety compared to tapered progesterone rats”. For the same compound, the “reactive astrocytes (GFAP staining)” value ([5]; acute withdrawal, injured, rank between TWI and VI) was “followed by AWL”, the “reactive astrocytes (GFAP staining)” value ([5]; tapered withdrawal, injured (TWI)) was “fewest reactive astrocytes” and the “injury-induced neuronal loss (mean cellular density STR, GP, DMN, VMN)” value ([6]; 3 days (LP3)) was “significant reduction of injury-induced neuronal loss in all brain regions examined”. For the same compound, the “injury-induced neuronal loss (mean cellular density STR, GP, DMN, VMN)” value ([6]; 5 days (LP5)) was “significant reduction of injury-induced neuronal loss in all brain regions examined”, the “neuronal loss in the VMN, 5 days vs 3 days of treatment” value ([6]; 5 days compared with 3 days) was “more effective than 3 days at attenuating neuronal loss in the VMN” and the “post injury cerebral edema” value [7] was “reduces the severity of post injury cerebral edema”. The “BSN task performance (latency to remove adhesive stimuli)” value [8] was “impaired on this task compared to control animals at both 6 and 20 days post injury”, the “Morris water maze performance” value ([9]; high dose 32 mg/kg in a cyclodextrin-containing vehicle) was “did not show any beneficial effect” and the “Morris water maze performance” value ([9]; low dose 8 mg/kg in a cyclodextrin-containing vehicle) was “consistent improvement in Morris water maze performance”. For the same compound, the “Morris water maze performance” value ([9]; moderate dose 16 mg/kg in a cyclodextrin-containing vehicle) was “consistent improvement in Morris water maze performance”, the “MWM spatial learning performance, second 5-day trial block (retention)” value ([10]; 4 mg/kg in peanut oil, 5 days (LP5)) was “improved spatial learning performance” and the “MWM spatial learning performance, initial 5-day acquisition phase” value ([10]; 4 mg/kg in peanut oil, LP3 and LP5 (all injured groups)) was “deficits in spatial learning performance as compared to control animals”. For the same compound, the “thigmotaxic (wall-hugging) swim patterns in MWM” value ([10]; 4 mg/kg, 5 days (LP5), last 2 days of second phase of MWM testing) was “reduction of thigmotaxic behavior” and the “swim speed in MWM” value ([10]; 4 mg/kg, LP3 and LP5, any day of testing) was “no between-group differences on swim speed measurements”.
